Assays:
Human thrombin = molecular target: T1, Human thrombin (Homo sapiens, UniProt P00734); assay: Inhibition of the protease activity of thrombin (chromogenic substrate S-2238); type: biochemical; conditions: Table C; 3 nM thrombin, 125 μM S-2238, 10 min pre-incubation, RT
T1 construct: purchased Haematologic Technologies Inc

malignant breast tumors = conditions: cited from earlier work

Row | IC50 (Human thrombin) [nM] | Compound | other results
1 | 100 to 1000 | O=C(c1cccnc1)n1nc(-c2ccco2)nc1NCc1ccccc1Cl [Cmpd 397, N-[(2-chlorophenyl)methyl]-3-(furan-2-yl)-1-[(pyridin-3-yl)carbonyl]-1H-1,2,4-triazol-5-amine] | 
2 | > 1000 | COc1ccccc1CNc1nc(-c2cccnc2)nn1C(=O)c1cccnc1 [Cmpd 398, N-[(2-methoxyphenyl)methyl]-3-(pyridin-3-yl)-1-[(pyridin-3-yl)carbonyl]-1H-1,2,4-triazol-5-amine] | 
3 | < 100 | Cc1ccc(C(=O)n2nc(-c3cccnc3)nc2NCc2ccc(F)cc2)cc1 [Cmpd 401, N-[(4-fluorophenyl)methyl]-1-[(4-methylphenyl)carbonyl]-3-(pyridin-3-yl)-1H-1,2,4-triazol-5-amine] | 
4 | < 100 | O=C(c1ccco1)n1nc(-c2cccnc2)nc1NCc1ccc(F)cc1 [Cmpd 402, N-[(4-fluorophenyl)methyl]-1-[(furan-2-yl)carbonyl]-3-(pyridin-3-yl)-1H-1,2,4-triazol-5-amine] | 
5 | < 100 | O=C(c1cccs1)n1nc(-c2cccnc2)nc1NCc1ccc(F)cc1 [Cmpd 403, N-[(4-fluorophenyl)methyl]-3-(pyridin-3-yl)-1-[(thiophen-2-yl)carbonyl]-1H-1,2,4-triazol-5-amine] | 
6 | 100 to 1000 | COc1ccc(CNc2nc(-c3cccnc3)nn2C(=O)c2ccc(C)cc2)cc1 [Cmpd 404, N-[(4-methoxyphenyl)methyl]-1-[(4-methylphenyl)carbonyl]-3-(pyridin-3-yl)-1H-1,2,4-triazol-5-amine] | 
7 | > 1000 | COc1ccc(CNc2nc(-c3cccnc3)nn2C(=O)c2cccs2)cc1 [Cmpd 405, N-[(4-methoxyphenyl)methyl]-3-(pyridin-3-yl)-1-[(thiophen-2-yl)carbonyl]-1H-1,2,4-triazol-5-amine] | 
8 | > 1000 | CC(=O)Nc1n[nH]c(NCc2ccccc2)n1 [Cmpd 406, N-[5-(benzylamino)-1H-1,2,4-triazol-3-yl]acetamide] | 
9 | > 1000 | O=C(Nc1n[nH]c(-c2ccco2)n1)c1ccccc1 [Cmpd 407, N-[5-(furan-2-yl)-1H-1,2,4-triazol-3-yl]benzamide] | 
10 | < 100 | O=C(c1ccccc1Cl)n1nc(-c2ccco2)nc1NCc1ccccc1 [Cmpd 408, N-benzyl-1-[(2-chlorophenyl)carbonyl]-3-(furan-2-yl)-1H-1,2,4-triazol-5-amine] | 
11 | < 100 | O=C(c1ccccc1Cl)n1nc(-c2cccs2)nc1NCc1ccccc1 [Cmpd 409, N-benzyl-1-[(2-chlorophenyl)carbonyl]-3-(thiophen-2-yl)-1H-1,2,4-triazol-5-amine] | 
12 | < 100 | Cc1ccc(C(=O)n2nc(-c3cccnc3)nc2NCc2ccccc2)cc1 [Cmpd 411, N-benzyl-1-[(4-methylphenyl)carbonyl]-3-(pyridin-3-yl)-1H-1,2,4-triazol-5-amine] | 
13 | > 1000 | O=C(c1cccs1)n1nc(-c2cccs2)nc1NCc1ccccc1 [Cmpd 412, N-benzyl-3-(thiophen-2-yl)-1-[(thiophen-2-yl)carbonyl]-1H-1,2,4-triazol-5-amine] | 

Further lines, the molecule ahead of its results:

Row | Compound | IC50 (Human thrombin) [nM] | other results
14 | O=C(c1cccnc1)n1nc(-c2ccco2)nc1NCc1cccs1 [Cmpd 368, 3-(furan-2-yl)-1-[(pyridin-3-yl)carbonyl]-N-(thiophen-2-ylmethyl)-1H-1,2,4-triazol-5-amine] | < 100 | 
15 | CS(=O)(=O)n1nc(-c2ccco2)nc1NCc1cccs1 [Cmpd 369, 3-(furan-2-yl)-1-methanesulfonyl-N-(thiophen-2-ylmethyl)-1H-1,2,4-triazol-5-amine] | > 1000 | 
16 | COc1ccccc1CNc1nc(-c2ccco2)nn1C(=O)c1ccc(C)cc1 [Cmpd 370, 3-(furan-2-yl)-N-[(2-methoxyphenyl)methyl]-1-[(4-methylphenyl)carbonyl]-1H-1,2,4-triazol-5-amine] | 100 to 1000 | 
17 | COc1ccc(CNc2nc(-c3ccco3)nn2C(=O)c2ccc(C)cc2)cc1 [Cmpd 371, 3-(furan-2-yl)-N-[(4-methoxyphenyl)methyl]-1-[(4-methylphenyl)carbonyl]-1H-1,2,4-triazol-5-amine] | 100 to 1000 | 
18 | O=C(c1cccnc1)n1nc(-c2cccnc2)nc1NCc1cccs1 [Cmpd 372, 3-(pyridin-3-yl)-1-[(pyridin-3-yl)carbonyl]-N-(thiophen-2-ylmethyl)-1H-1,2,4-triazol-5-amine] | 100 to 1000 | 
19 | Nc1nc(-c2cccs2)n[nH]1 [Cmpd 373, 3-(thiophen-2-yl)-1H-1,2,4-triazol-5-amine] | > 1000 | 
20 | Cc1ccc(CNc2nc(-c3cccnc3)nn2C(=O)CC(C)C)cc1 [Cmpd 374, 3-methyl-1-(5-[(4-methylphenyl)methyl]amino-3-(pyridin-3-yl)-1H-1,2,4-triazol-1-yl)butan-1-one] | < 100 | 
21 | CC(C)CC(=O)n1nc(-c2cccnc2)nc1NCc1cccs1 [Cmpd 375, 3-methyl-1-[3-(pyridin-3-yl)-5-[(thiophen-2-ylmethyl)amino]-1H-1,2,4-triazol-1-yl]butan-1-one] | < 100 | 
22 | CCOC(=O)n1nc(-c2ccc(Cl)cc2)cc1N [Cmpd 376, ethyl 5-amino-3-(4-chlorophenyl)-1H-pyrazole-1-carboxylate] | > 1000 | 
23 | COC(=O)c1nc(NC(=O)c2ccc(Cl)cc2Cl)n[nH]1 [Cmpd 377, methyl 3-[(2,4-dichlorobenzene)amido]-1H-1,2,4-triazole-5-carboxylate] | > 1000 | 
24 | COC(=O)c1n[nH]c(NC(=O)C(C)(C)C)n1 [Cmpd 378, methyl 5-(2,2-dimethylpropanamido)-1H-1,2,4-triazole-3-carboxylate] | > 1000 | 
25 | COC(=O)c1n[nH]c(NC(=O)c2ccoc2C)n1 [Cmpd 379, methyl 5-(2-methylfuran-3-amido)-1H-1,2,4-triazole-3-carboxylate] | > 1000 | 
26 | COC(=O)c1n[nH]c(NC(=O)c2ccccc2C)n1 [Cmpd 380, methyl 5-[(2-methylbenzene)amido]-1H-1,2,4-triazole-3-carboxylate] | > 1000 | 
27 | COC(=O)c1n[nH]c(NC2=NCCCCC2)n1 [Cmpd 381, methyl 5-[(3,4,5,6-tetrahydro-2H-azepin-7-yl)amino]-1H-1,2,4-triazole-3-carboxylate] | > 1000 | 
28 | COC(=O)c1n[nH]c(NC(=O)c2cccc(C)c2)n1 [Cmpd 382, methyl 5-[(3-methylbenzene)amido]-1H-1,2,4-triazole-3-carboxylate] | > 1000 | 
29 | COC(=O)c1nnc(NC(=O)c2ccc(Br)cc2)[nH]1 [Cmpd 383, methyl 5-[(4-bromobenzene)amido]-1H-1,2,4-triazole-3-carboxylate] | > 1000 | 
30 | COC(=O)c1nnc(NC(=O)c2ccc(F)cc2)[nH]1 [Cmpd 385, methyl 5-[(4-fluorobenzene)amido]-4H-1,2,4-triazole-3-carboxylate] | 100 to 1000 | 
31 | COC(=O)c1n[nH]c(N=Cc2cccnc2)n1 [Cmpd 387, methyl 5-[(pyridin-3-ylmethylidene)amino]-1H-1,2,4-triazole-3-carboxylate] | > 1000 | 
32 | COC(=O)c1n[nH]c(NC(=O)CCc2ccc(C)cc2)n1 [Cmpd 388, methyl 5-[3-(4-methylphenyl)propanamido]-1H-1,2,4-triazole-3-carboxylate] | > 1000 | 
33 | O=C(Nc1ccc(Cl)cc1Cl)c1n[nH]c(Cn2cncn2)n1 [Cmpd 390, N-(2,4-dichlorophenyl)-5-(1H-1,2,4-triazol-1-ylmethyl)-4H-1,2,4-triazole-3-carboxamide] | > 1000 | 
34 | O=C(Nc1ccccc1Cl)c1nc(-n2cnnc2)n[nH]1 [Cmpd 391, N-(2-chlorophenyl)-3-(4H-1,2,4-triazol-4-yl)-1H-1,2,4-triazole-5-carboxamide] | > 1000 | 
35 | O=C(Nc1ccc(Br)cc1)c1nc(-n2cnnc2)n[nH]1 [Cmpd 392, N-(4-bromophenyl)-3-(4H-1,2,4-triazol-4-yl)-1H-1,2,4-triazole-5-carboxamide] | > 1000 | 
36 | CCOc1ccc(NC(=O)c2nc(-n3cnnc3)n[nH]2)cc1 [Cmpd 393, N-(4-ethoxyphenyl)-3-(4H-1,2,4-triazol-4-yl)-1H-1,2,4-triazole-5-carboxamide] | > 1000 | 
37 | COc1ccccc1C(=O)n1nc(-c2ccccc2)nc1NCc1ccco1 [Cmpd 394, N-(furan-2-ylmethyl)-1-[(2-methoxyphenyl)carbonyl]-3-phenyl-1H-1,2,4-triazol-5-amine] | < 100 | 
38 | CS(=O)(=O)n1nc(-c2cccnc2)nc1NCc1ccco1 [Cmpd 395, N-(furan-2-ylmethyl)-1-methanesulfonyl-3-(pyridin-3-yl)-1H-1,2,4-triazol-5-amine] | > 1000 | 
39 | O=C(c1cccnc1)n1nc(-c2cccnc2)nc1NCc1ccco1 [Cmpd 396, N-(furan-2-ylmethyl)-3-(pyridin-3-yl)-1-[(pyridin-3-yl)carbonyl]-1H-1,2,4-triazol-5-amine] | > 1000 | 
40 | CCCCCCOC(=O)NC(=N)c1ccc(NCc2nc3cc(C(=O)N(CCC(=O)OCC)c4ccccn4)ccc3n2C)cc1 [dabigatran etexilate] |  | reduction in tumor volume (malignant breast tumors; at 4 weeks, treated mice): 50%; weight loss in treated mice (malignant breast tumors; at 4 weeks): no weight loss; reduced tumor cells in the blood and liver micrometastases (malignant breast tumors; treated mice): 50-60%

Source: patent US20170326125A1, “MULTISUBSTITUTED AROMATIC COMPOUNDS AS INHIBITORS OF THROMBIN” (VERSEON CORPORATION, priority 2016, published 2017)
